Measurements: patent US11208405B2, “Pyrrole derivatives as PLK1 inhibitors” (SENTINEL ONCOLOGY LIMITED, priority 2017, dated 2021)
Structures can show the parent of a compound that is named as a salt.

Tests used:
NEK6 = biological target: T1, NEK6 (Homo sapiens, UniProt Q9HC98); assay: Kinase selectivity assay (DiscoverX KinomeScreen), NEK6; assay type: binding; settings: NEK6, 5 μM; read-out: % Control
T1 construct: purchased DiscoverX
Procedure: (§1) The compound of Example 33 was tested for off-target activity against a panel of fifty five kinases bearing functional or structural similarity to PLK1 at a concentration of 5 μM using the DiscoverX KinomeScreen assay.

[1] = tested on: glioblastoma cell line 907313; assay: Glioblastoma cancer cell viability, cell line 907313; assay type: cell-based
Procedure: (§2) Assay to Measure the Effects of Compounds of the Invention on Glioblastoma Cancer Cell Viability
(§3) The compound of Example 33 was tested for inhibitory activity against the glioblastoma cell lines in Table 7 below.

ROCK2 = biological target: T2, ROCK2 (Homo sapiens, UniProt O75116); assay: Kinase selectivity assay (DiscoverX KinomeScreen), ROCK2; assay type: binding; settings: ROCK2, 5 μM; read-out: % Control
T2 construct: purchased DiscoverX
Procedure: as §1

Kinetic solubility = assay type: physicochemical; settings: kinetic from dmso stock
[2] = tested on: glioblastoma cell line 909750; assay: Glioblastoma cancer cell viability, cell line 909750; assay type: cell-based
Procedure: as §2, §3

[3] = tested on: glioblastoma cell line 908144; assay: Glioblastoma cancer cell viability, cell line 908144; assay type: cell-based
Procedure: as §2, §3

WNK1 = biological target: T3, WNK1 (Homo sapiens, UniProt Q9H4A3); assay: Kinase selectivity assay (DiscoverX KinomeScreen), WNK1; assay type: binding; settings: WNK1, 5 μM; read-out: % Control
T3 construct: purchased DiscoverX
Procedure: as §1

HCT116 cells = assay: Effects on HCT116 colorectal cancer cell viability (cell titre blue, 72 hours); assay type: cell-based; settings: Homo sapiens, HCT-116, HCT116 cell line
[4] = Stability in human hepatocytes; assay type: in vitro ADME
cytochrome P450 1A = assay: Cytochrome P450 inhibition, 1A; assay type: in vitro ADME
cytochrome P450 2D6 = cytochrome P450 2D6 (Homo sapiens, UniProt P10635); assay: Cytochrome P450 inhibition, 2D6; assay type: in vitro ADME
BMP2K = biological target: T4, BMP2K (Homo sapiens, UniProt Q9NSY1); assay: Kinase selectivity assay (DiscoverX KinomeScreen), BMP2K; assay type: binding; settings: read-out: % Control
T4 construct: purchased DiscoverX
Procedure: as §1

CDK2 = biological target: T5, CDK2 (Homo sapiens, UniProt P24941); assay: Kinase selectivity assay (DiscoverX KinomeScreen), CDK2; assay type: binding; settings: CDK2, 5 μM; read-out: % Control
T5 construct: purchased DiscoverX
Procedure: as §1

KRAS G12V HeLa cell line = assay: Wild-type versus KRAS HeLa cell viability: oncogenic KrasG12V transgene; assay type: cell-based; settings: Homo sapiens; HeLa cells expressing KRAS G12V, 72 hours
Procedure: Assay to Measure the Effects of Compounds of the Invention on Wild-Type Versus KRAS HeLa Cell Viability
Identifying synthetic lethal interactions between targeted small molecule therapies and characterised oncogenic mutations is a goal of modern oncology drug discovery efforts. To this end, PLK1-PBD inhibitors were tested on HeLa cells engineered to inducibly express wild-type or oncogenic KrasG12V transgenes using the FLP-in/T-Rex system (Invitrogen). Cells were plated, and then treated with or without Doxycycline to induce transgene expression, and then treated with serially-diluted PBD inhibitors. After 72 hours of incubation, cell viability was assessed using the Cell Titre Blue reagent (Promega) and a BMG Pherastar plate reader. The effect of PBD inhibition on cell viability with either wild-type or oncogenic G12V KRAS was assessed using the graphing/curve-fitting packages in GraphPad Prism.

[5] = tested on: glioblastoma cell line 907271; assay: Glioblastoma cancer cell viability, cell line 907271; assay type: cell-based
Procedure: as §2, §3

EIF2AK2 = biological target: T6, EIF2AK2 (Homo sapiens, UniProt P19525); assay: Kinase selectivity assay (DiscoverX KinomeScreen), EIF2AK2; assay type: binding; settings: EIF2AK2, 5 μM; read-out: % Control
T6 construct: purchased DiscoverX
Procedure: as §1

ULK3 = biological target: T7, ULK3 (Homo sapiens, UniProt Q6PHR2); assay: Kinase selectivity assay (DiscoverX KinomeScreen), ULK3; assay type: binding; settings: ULK3, 5 μM; read-out: % Control
T7 construct: purchased DiscoverX
Procedure: as §1

[6] = tested on: glioblastoma cell line 907279; assay: Glioblastoma cancer cell viability, cell line 907279; assay type: cell-based
Procedure: as §2, §3

phospho-histone H3 = assay: Western blotting of tumours 24 hours after a single dose; assay type: in vivo; settings: mice with established tumours
Procedure: In a separate experiment, eight mice with established tumours were treated with the compound of Example 33 and euthanised 24 hours after administration of a single dose.

STK35 = biological target: T8, STK35 (Homo sapiens, UniProt Q8TDR2); assay: Kinase selectivity assay (DiscoverX KinomeScreen), STK35; assay type: binding; settings: STK35, 5 μM; read-out: % Control
T8 construct: purchased DiscoverX
Procedure: as §1

WNK3 = biological target: T9, WNK3 (Homo sapiens, UniProt Q9BYP7); assay: Kinase selectivity assay (DiscoverX KinomeScreen), WNK3; assay type: binding; settings: WNK3, 5 μM; read-out: % Control
T9 construct: purchased DiscoverX
Procedure: as §1

T7 sequence (Q6PHR2 whole entry): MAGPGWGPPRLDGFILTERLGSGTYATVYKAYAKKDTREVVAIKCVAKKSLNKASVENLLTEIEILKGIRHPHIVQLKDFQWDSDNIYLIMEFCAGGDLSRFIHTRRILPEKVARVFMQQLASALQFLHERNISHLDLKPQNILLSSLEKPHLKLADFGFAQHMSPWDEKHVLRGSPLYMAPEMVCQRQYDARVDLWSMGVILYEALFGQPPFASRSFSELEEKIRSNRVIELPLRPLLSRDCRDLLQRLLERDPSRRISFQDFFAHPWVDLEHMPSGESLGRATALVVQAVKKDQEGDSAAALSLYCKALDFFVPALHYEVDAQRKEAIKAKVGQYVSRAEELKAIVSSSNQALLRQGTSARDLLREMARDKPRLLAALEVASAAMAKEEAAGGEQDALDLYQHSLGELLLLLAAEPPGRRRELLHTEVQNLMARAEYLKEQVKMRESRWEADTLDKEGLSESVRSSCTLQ
T1 sequence (Q9HC98 whole entry): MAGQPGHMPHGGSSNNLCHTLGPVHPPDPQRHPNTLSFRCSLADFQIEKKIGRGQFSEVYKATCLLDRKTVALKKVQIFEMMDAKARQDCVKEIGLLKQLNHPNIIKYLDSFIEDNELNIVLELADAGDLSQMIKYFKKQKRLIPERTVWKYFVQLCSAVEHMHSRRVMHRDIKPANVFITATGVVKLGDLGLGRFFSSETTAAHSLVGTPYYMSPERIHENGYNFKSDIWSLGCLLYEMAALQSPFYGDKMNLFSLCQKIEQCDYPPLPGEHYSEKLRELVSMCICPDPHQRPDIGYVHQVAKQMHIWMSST
cytochrome P450 2D6, sequence (P10635 whole entry): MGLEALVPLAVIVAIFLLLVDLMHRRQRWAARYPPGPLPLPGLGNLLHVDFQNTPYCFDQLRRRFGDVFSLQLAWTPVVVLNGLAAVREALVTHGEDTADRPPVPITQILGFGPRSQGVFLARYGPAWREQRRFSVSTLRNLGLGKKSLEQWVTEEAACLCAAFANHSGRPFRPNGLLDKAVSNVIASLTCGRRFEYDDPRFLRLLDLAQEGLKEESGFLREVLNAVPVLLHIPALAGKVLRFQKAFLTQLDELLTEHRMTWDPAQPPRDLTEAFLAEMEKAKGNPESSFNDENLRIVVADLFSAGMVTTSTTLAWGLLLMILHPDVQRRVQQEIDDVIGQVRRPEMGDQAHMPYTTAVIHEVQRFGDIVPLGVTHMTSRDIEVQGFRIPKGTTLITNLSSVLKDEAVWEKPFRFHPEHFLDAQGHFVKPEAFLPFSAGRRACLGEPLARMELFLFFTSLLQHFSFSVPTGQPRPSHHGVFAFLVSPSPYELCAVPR
T2 sequence (O75116 whole entry): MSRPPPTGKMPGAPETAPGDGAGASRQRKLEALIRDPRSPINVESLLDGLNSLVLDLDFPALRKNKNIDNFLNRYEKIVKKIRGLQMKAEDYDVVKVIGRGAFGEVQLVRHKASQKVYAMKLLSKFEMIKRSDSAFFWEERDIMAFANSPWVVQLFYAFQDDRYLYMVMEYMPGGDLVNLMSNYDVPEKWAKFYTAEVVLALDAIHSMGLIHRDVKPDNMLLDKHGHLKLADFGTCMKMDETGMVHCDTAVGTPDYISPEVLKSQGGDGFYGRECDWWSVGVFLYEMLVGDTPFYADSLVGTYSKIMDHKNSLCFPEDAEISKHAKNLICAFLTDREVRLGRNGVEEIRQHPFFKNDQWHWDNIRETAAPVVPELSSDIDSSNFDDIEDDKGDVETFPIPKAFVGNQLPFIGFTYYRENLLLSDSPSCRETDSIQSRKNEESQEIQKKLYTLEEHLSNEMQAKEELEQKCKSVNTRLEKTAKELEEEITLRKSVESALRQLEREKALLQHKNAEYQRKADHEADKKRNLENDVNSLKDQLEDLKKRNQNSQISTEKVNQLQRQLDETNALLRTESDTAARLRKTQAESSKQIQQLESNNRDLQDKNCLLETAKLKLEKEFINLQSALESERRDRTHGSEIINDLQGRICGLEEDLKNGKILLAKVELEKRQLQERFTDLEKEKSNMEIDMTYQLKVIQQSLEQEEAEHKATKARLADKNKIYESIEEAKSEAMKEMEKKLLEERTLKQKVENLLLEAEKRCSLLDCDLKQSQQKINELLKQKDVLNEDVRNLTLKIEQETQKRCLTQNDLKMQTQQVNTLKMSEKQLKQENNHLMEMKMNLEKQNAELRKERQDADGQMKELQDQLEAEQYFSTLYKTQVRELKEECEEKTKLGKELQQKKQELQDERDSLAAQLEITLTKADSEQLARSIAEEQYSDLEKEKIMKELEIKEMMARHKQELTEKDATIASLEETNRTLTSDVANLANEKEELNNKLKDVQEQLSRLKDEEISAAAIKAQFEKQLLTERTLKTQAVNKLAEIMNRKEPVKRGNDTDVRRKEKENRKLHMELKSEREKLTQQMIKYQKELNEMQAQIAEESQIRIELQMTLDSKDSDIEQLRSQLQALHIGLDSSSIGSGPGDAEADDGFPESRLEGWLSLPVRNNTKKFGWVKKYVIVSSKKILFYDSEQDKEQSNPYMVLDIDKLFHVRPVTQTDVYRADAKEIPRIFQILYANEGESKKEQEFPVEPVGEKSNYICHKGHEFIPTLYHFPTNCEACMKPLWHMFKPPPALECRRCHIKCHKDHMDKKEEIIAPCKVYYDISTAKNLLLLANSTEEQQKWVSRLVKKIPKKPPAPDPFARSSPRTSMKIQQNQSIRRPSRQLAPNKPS
T4 sequence (Q9NSY1 whole entry): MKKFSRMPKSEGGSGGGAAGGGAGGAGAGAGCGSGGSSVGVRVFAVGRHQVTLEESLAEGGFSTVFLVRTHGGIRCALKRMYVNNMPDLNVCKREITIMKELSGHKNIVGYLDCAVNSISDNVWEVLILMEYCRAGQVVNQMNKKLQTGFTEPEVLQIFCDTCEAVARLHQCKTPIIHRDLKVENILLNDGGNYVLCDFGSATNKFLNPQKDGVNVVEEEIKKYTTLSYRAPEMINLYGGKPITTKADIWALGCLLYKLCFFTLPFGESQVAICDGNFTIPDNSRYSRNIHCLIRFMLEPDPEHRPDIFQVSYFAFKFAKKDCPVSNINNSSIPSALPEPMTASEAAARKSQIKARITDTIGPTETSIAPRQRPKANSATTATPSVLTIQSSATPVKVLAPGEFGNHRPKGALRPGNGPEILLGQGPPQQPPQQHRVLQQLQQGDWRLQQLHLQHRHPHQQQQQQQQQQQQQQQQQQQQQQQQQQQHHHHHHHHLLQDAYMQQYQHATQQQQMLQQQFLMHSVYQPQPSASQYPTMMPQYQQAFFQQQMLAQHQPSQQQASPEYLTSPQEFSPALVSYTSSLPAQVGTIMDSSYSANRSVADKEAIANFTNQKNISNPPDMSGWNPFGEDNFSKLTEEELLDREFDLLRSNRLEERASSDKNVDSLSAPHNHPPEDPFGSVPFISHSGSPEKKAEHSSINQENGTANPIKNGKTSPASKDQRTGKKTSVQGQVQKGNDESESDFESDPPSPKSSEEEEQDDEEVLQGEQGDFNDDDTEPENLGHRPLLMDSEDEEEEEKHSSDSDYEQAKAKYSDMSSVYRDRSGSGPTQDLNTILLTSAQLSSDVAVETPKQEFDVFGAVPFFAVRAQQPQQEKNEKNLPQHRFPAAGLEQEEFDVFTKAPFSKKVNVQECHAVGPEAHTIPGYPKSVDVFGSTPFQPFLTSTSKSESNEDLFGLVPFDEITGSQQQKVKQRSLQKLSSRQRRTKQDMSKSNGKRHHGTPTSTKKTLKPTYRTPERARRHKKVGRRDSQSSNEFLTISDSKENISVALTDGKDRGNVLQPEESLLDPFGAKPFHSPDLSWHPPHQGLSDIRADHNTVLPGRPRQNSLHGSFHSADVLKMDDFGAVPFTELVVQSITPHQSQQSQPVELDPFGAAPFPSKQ
T8 sequence (Q8TDR2 whole entry): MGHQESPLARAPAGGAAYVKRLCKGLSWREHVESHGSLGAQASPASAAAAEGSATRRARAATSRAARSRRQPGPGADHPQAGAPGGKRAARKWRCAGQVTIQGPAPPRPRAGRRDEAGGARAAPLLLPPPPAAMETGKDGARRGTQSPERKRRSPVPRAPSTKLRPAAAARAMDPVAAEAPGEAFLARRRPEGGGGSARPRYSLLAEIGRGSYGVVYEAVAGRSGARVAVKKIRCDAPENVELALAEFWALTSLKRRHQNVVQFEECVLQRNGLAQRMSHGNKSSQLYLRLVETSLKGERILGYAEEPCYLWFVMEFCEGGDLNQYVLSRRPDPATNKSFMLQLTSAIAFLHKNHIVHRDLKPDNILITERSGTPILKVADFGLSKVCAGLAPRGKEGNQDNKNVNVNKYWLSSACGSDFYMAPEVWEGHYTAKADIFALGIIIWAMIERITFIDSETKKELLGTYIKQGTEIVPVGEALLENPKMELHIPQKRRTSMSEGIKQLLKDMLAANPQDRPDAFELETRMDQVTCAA
T6 sequence (P19525 whole entry): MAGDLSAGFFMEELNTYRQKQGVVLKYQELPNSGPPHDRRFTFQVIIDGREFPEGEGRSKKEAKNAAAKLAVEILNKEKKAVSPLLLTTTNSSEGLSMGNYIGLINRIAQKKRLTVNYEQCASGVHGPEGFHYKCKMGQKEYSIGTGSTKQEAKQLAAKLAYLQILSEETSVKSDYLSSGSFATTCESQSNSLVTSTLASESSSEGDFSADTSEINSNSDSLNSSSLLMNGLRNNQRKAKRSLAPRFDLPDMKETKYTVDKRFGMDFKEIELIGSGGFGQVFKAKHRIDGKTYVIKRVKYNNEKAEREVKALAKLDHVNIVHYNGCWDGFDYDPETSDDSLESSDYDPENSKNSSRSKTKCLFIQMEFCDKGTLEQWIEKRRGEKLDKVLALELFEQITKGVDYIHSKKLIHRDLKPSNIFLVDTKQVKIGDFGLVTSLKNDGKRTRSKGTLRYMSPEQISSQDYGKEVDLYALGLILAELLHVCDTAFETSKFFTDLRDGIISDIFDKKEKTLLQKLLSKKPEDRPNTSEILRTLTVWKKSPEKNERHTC

CN(C)CCNC(=O)c1ccc(-c2ccc(-c3ccc(Cl)cc3)n2-c2ccccc2C(F)(F)F)cc1 [Example 33, 4-[5-(4-chlorophenyl)-1-[2-(trifluoromethyl)phenyl]pyrrol-2-yl]-N-[2-(dimethylamino)ethyl]benzamide Hydrochloride] showed a remaining activity at 5 µM (NEK6) of 99%, an IC50 [1] of 1.11 µM and a remaining activity at 5 µM (ROCK2) of 100%. The solubility kinetic (Kinetic solubility) was 32 µM, the IC50 [2] was 0.929 µM and the IC50 [3] was 2.42 µM. It also gave a remaining activity at 5 µM (WNK1) of 97%, a GI50 (HCT116 cells) of 0.01 µM and a hepatocyte CLint [4] of 10 µL/min/1e6 cells. For the same compound, the “cytochrome P450 inhibition 1A” value (cytochrome P450 1A) was over 10 µM, the “cytochrome P450 inhibition 2D6” value (cytochrome P450 2D6) was over 10 µM and the remaining activity at 5 µM (BMP2K) was 85%. The remaining activity at 5 µM (CDK2) was 89%, the GI50 (KRAS G12V HeLa cell line) was 0.01 µM and the IC50 [5] was 2.06 µM. It also gave a remaining activity at 5 µM (EIF2AK2) of 90%, a remaining activity at 5 µM (ULK3) of 88% and an IC50 [6] of 27.8 µM. For the same compound, the “phospho-histone H3 in tumours (Western blotting)” value (phospho-histone H3) was “clear induction of phospho-histone H3”, the remaining activity at 5 µM (STK35) was 71% and the remaining activity at 5 µM (WNK3) was 100%.
